In PubChem BioAssay AID328 (DTP/NCI, 2004):
Values joined by “and” are separate entries in the source; they are usually repeats but may differ in a detail not shown here. Identical values can stand only once. Toxic doses and inconclusive results are not listed.

Tested on: BDF1 mice, P388 leukemia ip, median survival T/C
Assay: NCI In Vivo Anticancer Drug Screen. Data for tumor model P388 Leukemia (intraperitoneal) in B6D2F1 (BDF1) mice
Conditions: endpoint: median survival time, higher = longer survival
Outline: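 Compound-treated tumour-bearing mice were compared with vehicle-treated controls. Survival was recorded, and the value is the treated-group measurement divided by the control-group measurement (T/C).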

[1] = dose: 100.0 mg/kg/injection, schedule: Q01DX009 (ip), vehicle: Klucel (hydroxypropylcellulose) (HPC)
[2] = dose: 100.0 mg/kg/injection, schedule: Q04DX003 (ip), vehicle: Klucel (hydroxypropylcellulose) (HPC)
[3] = dose: 200.0 mg/kg/injection, schedule: Q01DX009 (ip), vehicle: Klucel (hydroxypropylcellulose) (HPC)
[4] = dose: 200.0 mg/kg/injection, schedule: Q04DX003 (ip), vehicle: Klucel (hydroxypropylcellulose) (HPC)
[5] = dose: 400.0 mg/kg/injection, schedule: Q04DX003 (ip), vehicle: Klucel (hydroxypropylcellulose) (HPC)
[6] = dose: 12.5 mg/kg/injection, schedule: Q04DX003 (ip), vehicle: saline with Tween-80
[7] = dose: 25.0 mg/kg/injection, schedule: Q04DX003 (ip), vehicle: saline with Tween-80
[8] = dose: 50.0 mg/kg/injection, schedule: Q01DX009 (ip), vehicle: saline with Tween-80
[9] = dose: 100.0 mg/kg/injection, schedule: Q01DX009 (ip), vehicle: saline with Tween-80
[10] = dose: 200.0 mg/kg/injection, schedule: Q01DX009 (ip), vehicle: saline with Tween-80
[11] = dose: 400.0 mg/kg/injection, schedule: Q04DX003 (ip), vehicle: saline with Tween-80
[12] = dose: 50.0 mg/kg/injection, schedule: Q01DX009 (ip), vehicle: Klucel (hydroxypropylcellulose) (HPC)

O=[N+]([O-])c1cc(Br)c(N2CCCC2)cc1N1CCCC1
T/C [1]: 104 % of control
T/C [2]: 100 % of control
T/C [3]: 100 % of control
T/C [4]: 95 % of control
T/C (dose: 400.0 mg/kg/injection, schedule: Q01DX009 (ip), vehicle: Klucel (hydroxypropylcellulose) (HPC)): 100 % of control
T/C [5]: 110 % of control

COc1cc2c(c(OC)c1OC)-c1ccc(SC)c(=O)cc1[C@@H](NC1OC(CO)C(O)C(O)C1O)CC2 (stereo not given in full)
T/C (dose: 50.0 mg/kg/injection, schedule: Q01DX009 (ip), vehicle: saline): 155 % of control

CCOC(=O)NCCCNC(=O)OCC
T/C (dose: 100.0 mg/kg/injection, schedule: Q04DX003 (ip), vehicle: saline): 115 % of control
T/C (dose: 200.0 mg/kg/injection, schedule: Q04DX003 (ip), vehicle: saline): 115 % of control
T/C (dose: 400.0 mg/kg/injection, schedule: Q04DX003 (ip), vehicle: saline): 105 % of control

O=c1c2cccc3cccc(c32)c2nc3ccccc3n12
T/C (dose: 4.0 mg/kg/injection, schedule: Q01DX009 (ip), vehicle: saline with Tween-80): 100 % of control
T/C (dose: 6.0 mg/kg/injection, schedule: Q01DX009 (ip), vehicle: saline with Tween-80): 108 % of control
T/C (dose: 6.25 mg/kg/injection, schedule: Q04DX003 (ip), vehicle: saline with Tween-80): 87 % of control
T/C [6]: 95 % of control
T/C [7]: 112 % of control

CCCN(CCC)CCCCO
T/C (dose: 22.0 mg/kg/injection, schedule: Q04DX003 (ip), vehicle: saline): 104 % of control
T/C (dose: 33.0 mg/kg/injection, schedule: Q04DX003 (ip), vehicle: saline): 109 % of control
T/C (dose: 50.0 mg/kg/injection, schedule: Q04DX003 (ip), vehicle: saline): 104 % of control
T/C (dose: 75.0 mg/kg/injection, schedule: Q04DX003 (ip), vehicle: saline): 104 % of control

COc1cc2ccc3c4cc5c(cc4cnc3c2cc1OC)OCO5
T/C (dose: 12.5 mg/kg/injection, schedule: Q01DX009 (ip), vehicle: saline with Tween-80): 109 % of control and 119 % of control
T/C [6]: 102 % of control
T/C (dose: 25.0 mg/kg/injection, schedule: Q01DX009 (ip), vehicle: saline with Tween-80): 106 % of control
T/C [7]: 100 % of control
T/C [8]: 106 % of control
T/C (dose: 50.0 mg/kg/injection, schedule: Q04DX003 (ip), vehicle: saline with Tween-80): 92 % of control
T/C [9]: 99 % of control and 100 % of control and 114 % of control
T/C [10]: 107 % of control and 111 % of control
T/C (dose: 400.0 mg/kg/injection, schedule: Q01DX009 (ip), vehicle: saline with Tween-80): 101 % of control and 124 % of control
T/C [11]: 92 % of control

C[C@@H]1C[C@@]2(C)[C@@H](CC[C@@H]3[C@@H]2CC[C@]2(C)[C@@H](O)CC[C@@H]32)C[C@@H]1O
T/C (dose: 220.0 mg/kg/injection, schedule: Q01DX010 (sc), vehicle: steriod suspending solution): 100 % of control
T/C (dose: 440.0 mg/kg/injection, schedule: Q01DX010 (sc), vehicle: steriod suspending solution): 115 % of control

CN(C)c1ccc(C=O)cc1Br
T/C [12]: 95 % of control
T/C [1]: 95 % of control
T/C [2]: 100 % of control
T/C [3]: 100 % of control
T/C [4]: 100 % of control
T/C [5]: 100 % of control

COC(=O)C1(Br)CCC1(Br)C(=O)OC (stereo not given)
T/C [12]: 100 % of control
T/C (dose: 100.0 mg/kg/injection, schedule: Q01DX001 (ip), vehicle: other): 100 % of control
T/C [1]: 109 % of control
T/C [2]: 109 % of control
T/C (dose: 200.0 mg/kg/injection, schedule: Q01DX001 (ip), vehicle: other): 95 % of control
T/C [3]: 113 % of control
T/C [4]: 109 % of control
T/C (dose: 400.0 mg/kg/injection, schedule: Q01DX001 (ip), vehicle: other): 112 % of control
T/C [5]: 113 % of control

Cc1ccc(C)c(Cc2c(C=O)[nH]c(=S)[nH]c2=O)c1
T/C (dose: 100.0 mg/kg/injection, schedule: Q04DX003 (ip), vehicle: saline with Tween-80): 100 % of control
T/C (dose: 200.0 mg/kg/injection, schedule: Q04DX003 (ip), vehicle: saline with Tween-80): 109 % of control
T/C [11]: 122 % of control

Clc1ccccc1N1CN(c2ccccc2Cl)CN(c2ccccc2Cl)C1
T/C [8]: 104 % of control
T/C [9]: 100 % of control
T/C [10]: 100 % of control

O=C(Nc1ccc(F)cc1)C12CC3CC(CC(C3)C1)C2
T/C [8]: 92 % of control
T/C [9]: 92 % of control
T/C [10]: 92 % of control
